We go through two compounds from US20160137990A1, “CRYSTAL STRUCTURE OF BLOOD COAGULATION FACTOR XIIIA” (ZEDIRA GMBH, priority 2012, published 2016).

This assay deals with T1, Factor XIIIa (Homo sapiens, UniProt P00488).
T1 construct: purchased Zedira T027 or T007
T1 sequence (P00488 39-732 limits assumed): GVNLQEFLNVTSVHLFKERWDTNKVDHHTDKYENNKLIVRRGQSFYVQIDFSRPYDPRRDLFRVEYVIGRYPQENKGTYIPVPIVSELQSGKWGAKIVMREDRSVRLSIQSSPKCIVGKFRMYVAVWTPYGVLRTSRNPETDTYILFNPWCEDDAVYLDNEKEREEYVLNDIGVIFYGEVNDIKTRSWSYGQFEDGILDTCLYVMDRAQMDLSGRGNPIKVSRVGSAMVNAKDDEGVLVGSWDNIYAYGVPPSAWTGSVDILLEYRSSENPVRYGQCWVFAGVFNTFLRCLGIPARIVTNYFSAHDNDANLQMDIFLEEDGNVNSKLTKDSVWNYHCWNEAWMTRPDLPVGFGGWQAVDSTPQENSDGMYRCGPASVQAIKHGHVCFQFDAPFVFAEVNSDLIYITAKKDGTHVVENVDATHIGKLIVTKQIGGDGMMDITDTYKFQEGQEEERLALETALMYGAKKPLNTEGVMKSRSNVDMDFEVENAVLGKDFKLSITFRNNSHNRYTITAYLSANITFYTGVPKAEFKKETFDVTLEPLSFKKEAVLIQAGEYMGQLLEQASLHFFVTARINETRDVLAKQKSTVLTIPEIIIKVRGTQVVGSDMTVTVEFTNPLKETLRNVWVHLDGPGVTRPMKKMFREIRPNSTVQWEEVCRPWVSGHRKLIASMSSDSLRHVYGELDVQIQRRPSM
The experiment in a line: Fluorogenic assay kit F001 (Zedira), isopeptidase activity of FXIIIa. The format is biochemical. The conditions noted are these: FXIIIa after activation by thrombin; fluorescence ex 313 nm / em 418 nm. As for the experimental part: Kinetic data of the inhibitor 1 (compound 4) and inhibitor 2 (compound 7) using the commercial fluorogenic assay kit F001 (Zedira) show an IC50 of about 0.11 and 0.08 μM respectively. The fluorogenic assay kit F001 (Zedira) is ready to use. Briefly, recombinant factor XIII (Zedira, product number T027) or human blood derived factor XIII (T007) is reconstituted in water. The enzymatic activity is measured in a suitable buffer (e.g. TRIS buffer pH 7.5 containing calcium chloride, sodium chloride, poly ethylene glycol (PEG), glycine methyl ester, clot inhibitor peptide GPRP-amide) after activation by thrombin. Factor XIIIa cleaves a dark quenching molecule from the side chain of the modified peptide incorporating glycine methyl ester (so called iso-peptidase activity). Subsequently, the fluorescence of an N-terminal coupled dye increases and can be monitored on-line (excitation wavelength 313 nm; emission wavelength 418 nm). The inhibitor of interest can be added after the activation of Factor XIII by thrombin is completed. The IC50 value represents the inhibitor concentration leading to a 50% inhibition of FXIIIa activity.

Where a name gives a salt, the structure may show the parent alone. Starred links: 1 amine or outer side, 2 acyl side, 3 side chain; linkers in the order of their positions; H or OH if unused. Non-standard residues stand in square brackets, D forms with d. Residues, ends and D or L forms follow the SMILES beside them. ξ: configuration not given here. X1 = COC(=O)/C=C/CC[C@H](N[*:1])C(=O)[*:2]; Pro(4-oxo) = O=C1CN[C@H](C(=O)O)C1; Ile(3ξ) = CCC(C)[C@H](N)C(=O)O; Nle = CCCC[C@H](N)C(=O)O

As for `CCCC[C@H](NC(=O)[C@H](CC/C=C/C(=O)OC)NC(=O)[C@@H](CC(=O)O)NC(C)=O)C(=O)N[C@@H](CCCC)C(=O)N[C@@H](CC(C)C)C(=O)N1CCC[C@H]1C(=O)N[C@@H](Cc1c[nH]c2ccccc12)C(=O)N1CCC[C@H]1C(=O)O` [compound 4, (S)-1-((S)-2-((S)-1-((4R,7S,10S,13S,16S)-10,13-dibutyl-4-(carboxymethyl)-7-((E)-5-methoxy-5-oxopent-3-enyl)-18-methyl-2,5,8,11,14-pentaoxo-3,6,9,12,15-pentaazanonadecanecarbonyl)pyrrolidine-2-carboxamido)-3-(1H-indol-3-yl)propanoyl)pyrrolidine-2-carboxylic acid] (Ac-[dD][X1][Nle][Nle]LPWP-OH), the IC50 is roughly 110 nM.
The compound `CCCC[C@H](NC(=O)[C@H](CC/C=C/C(=O)OC)NC(=O)[C@@H]1CC(=O)CN1)C(=O)N[C@H](C(=O)N[C@@H](CC(C)C)C(=O)N1CCC[C@H]1C(=O)N[C@@H](Cc1c[nH]c2ccccc12)C(=O)N1CCC[C@H]1C(=O)O)C(C)CC` (stereo partly drawn) [compound 7, (S)-1-((S)-2-((S)-1-((8S,11S,14S,17S,E)-14-sec-butyl-11-butyl-17-isobutyl-3,9,12,15-tetraoxo-8-((S)-4-oxopyrrolidine-2-carboxamido)-2-oxa-10,13,16-triazaoctadec-4-ene)pyrrolidine-2-carboxamido)-3-(1H-indol-3-yl)propanoyl)pyrrolidine-2-carboxylic acid trifluoroacetate] (H-[Pro(4-oxo)][X1][Nle][Ile(3ξ)]LPWP-OH) returned an IC50 of roughly 80 nM.

A word on the IC50: it is the concentration at which inhibition is half-maximal.
